In ChEMBL document CHEMBL2396565, “An epigenetic modifier enhances the production of anti-diabetic and anti-inflammatory sesquiterpenoids from Aspergillus sydowii” (Bioorg Med Chem, 2013):
Active and inactive are the calls of the source. The rule behind the calls is not given here.

Tests used:
[1] = Antiinflammatory activity in human neutrophils assessed as inhibition of fMLP/CB-induced elastase release at 10 ug/mL after 5 mins by spectrophotometric analysis relative to control; type: functional; conditions: Neutrophil
[2] = Antiinflammatory activity in human neutrophils assessed as inhibition of fMLP/CB-induced superoxide generation after 5 mins by spectrophotometric analysis; type: functional, cell-based; conditions: Neutrophil
[3] = Antiinflammatory activity in human neutrophils assessed as inhibition of fMLP/CB-induced elastase release after 5 mins by spectrophotometric analysis; type: functional, cell-based; conditions: Neutrophil
[4] = Antiinflammatory activity in human neutrophils assessed as inhibition of fMLP/CB-induced superoxide generation at 10 ug/mL after 5 mins by spectrophotometric analysis relative to control; type: functional; conditions: Neutrophil
3T3-L1 [5] = test: Potentiation of insulin-stimulated glucose consumption in mouse 3T3L1 cells assessed as glucose concentration in culture medium at 30 ug/mL after 24 hrs (reference value: 427.4 mg/dL); type: functional
3T3-L1 [6] = test: Potentiation of insulin-stimulated glucose consumption in mouse 3T3L1 cells at 30 ug/mL after 24 hrs; type: functional, cell-based
3T3-L1 [7] = test: Inhibition of lipid accumulation in mouse 3T3L1 cells at 30 ug/mL after 8 days by Oil red O staining-based microscopic analysis relative to control; type: functional; conditions: 3T3-L1, 192 h

SMILES | IC50 [2] | IC50 [3] | inhibition at 10 µg/mL [1] [%] | inhibition at 10 µg/mL [4] [%] | Activity (3T3-L1 [5]) [mg/dL] | Activity (3T3-L1 [6]) | inhibition at 30 µg/mL (3T3-L1 [7]) [%]
CC(C)CCC[C@](C)(O)c1ccc(C(=O)O)cc1O | 27.8 µM | > 10 µg/mL | 2.56 | 60.2 | 381.4 | – | –
C/C(=C\CCC(C)CO)c1ccc(CO)cc1O (stereo unspecified) | 21.5 µM | > 10 µg/mL | 6.68 | 71.7 | – | Active | –
CO[C@@](C)(CCCC(C)C)c1ccc(CO)cc1O [(7S)-(+)-7-O-METHYLSYDONOL] | 13.8 µM | > 10 µg/mL | 29.8 | 69 | – | Active | –
COC(=O)c1cccc2oc3cc(CO)cc(O)c3c(=O)c12 [SYDOWININ A] | > 10 µg/mL | > 10 µg/mL | 28.7 | 38.1 | – | – | –
COC(=O)c1c(O)ccc2oc3cc(CO)cc(O)c3c(=O)c12 [SYDOWININ B] | 21.2 µM | 12.6 µM | 85 | 66.2 | – | – | –

More lines, in order of falling IC50 [2], values ahead:

IC50 [2] | IC50 [3] | SMILES | inhibition at 10 µg/mL [1] [%] | inhibition at 10 µg/mL [4] [%] | Activity (3T3-L1 [5]) [mg/dL] | Activity (3T3-L1 [6]) | inhibition at 30 µg/mL (3T3-L1 [7]) [%]
12.2 µM | > 10 µg/mL | Cc1cc(O)cc(Oc2cc(C)cc(O)c2)c1 [DIORCINOL] | 39.8 | 92 | – | – | –
6.11 µM | 8.8 µM | C/C(=C\CCC(C)C)c1ccc(CO)cc1O | 84.3 | 97.8 | – | – | –
6 µM | 6.6 µM | COC(=O)[C@@H]1c2c(oc3cc(CO)cc(O)c3c2=O)C=C[C@H]1O | 98.9 | 102 | – | – | –
5.23 µM | 16.4 µM | CC(C)CCC[C@](C)(O)c1ccc(CO)cc1O [(S)-(+)-SYDONOL] | 65.3 | 87 | 324.6 | Active | ≤ 48
1.27 µM | 5.62 µM | CNC(=O)c1cc(Oc2ccc(NC(=O)Nc3ccc(Cl)c(C(F)(F)F)c3)cc2)ccn1 [SORAFENIB] | 83 | 70.9 | – | – | –
